Test results from US8791303B2, “Herbicides” (Syngenta Limited, priority 2009, dated 2014).

Legend:
[1] = system: Echinochloa crus-galli (ECHCG); assay: Example A glasshouse herbicide test, post-emergence, ECHCG; assay type: in vivo; conditions: Echinochloa crus-galli, post-emergence, 312 h, Rate 250 g/ha, sprayed after 8 days cultivation, evaluated after 13 days, read-out: Post-Emergence Activity ECHCG (100=total damage to plant; 0=no damage to plant)
Protocol: (§1) Seeds of a variety of test species are sown in standard soil in pots. After cultivation for one day (pre-emergence) or after 8 days cultivation (post-emergence) under controlled conditions in a glasshouse (at 24/16° C., day/night; 14 hours light; 65% humidity), the plants are sprayed with an aqueous spray solution derived from the formulation of the technical active ingredient in acetone/water (50:50) solution containing 0.5% Tween 20 (polyoxyethelyene sorbitan monolaurate, CAS RN 9005-64-5).
(§2) The test plants are then grown in a glasshouse under controlled conditions in a glasshouse (at 24/16° C., day/night; 14 hours light; 65% humidity) and watered twice daily. After 13 days for pre and post-emergence, the test is evaluated (100=total damage to plant; 0=no damage to plant).
(§3) Lolium perenne (LOLPE), Alopecurus myosuroides (ALOMY), Echinochloa crus-galli (ECHCG), Avena fatua (AVEFA)

Avena fatua (AVEFA) [2] = assay: Example A glasshouse herbicide test, pre-emergence, AVEFA; assay type: in vivo; conditions: Avena fatua, pre-emergence, 312 h, Rate 250 g/ha, sprayed after cultivation for one day, evaluated after 13 days, read-out: Pre-Emergence Activity AVEFA (100=total damage to plant; 0=no damage to plant)
Protocol: as §1, §2, §3

[3] = system: Echinochloa crus-galli (ECHCG); assay: Example A glasshouse herbicide test, pre-emergence, ECHCG; assay type: in vivo; conditions: Echinochloa crus-galli, pre-emergence, 312 h, Rate 250 g/ha, sprayed after cultivation for one day, evaluated after 13 days, read-out: Pre-Emergence Activity ECHCG (100=total damage to plant; 0=no damage to plant)
Protocol: as §1, §2, §3

Lolium perenne (LOLPE) [4] = assay: Example A glasshouse herbicide test, pre-emergence, LOLPE; assay type: in vivo; conditions: Lolium perenne, pre-emergence, 312 h, Rate 250 g/ha, sprayed after cultivation for one day, evaluated after 13 days, read-out: Pre-Emergence Activity LOLPE (100=total damage to plant; 0=no damage to plant)
Protocol: as §1, §2, §3

Avena fatua (AVEFA) [5] = assay: Example A glasshouse herbicide test, post-emergence, AVEFA; assay type: in vivo; conditions: Avena fatua, post-emergence, 312 h, Rate 250 g/ha, sprayed after 8 days cultivation, evaluated after 13 days, read-out: Post-Emergence Activity AVEFA (100=total damage to plant; 0=no damage to plant)
Protocol: as §1, §2, §3

[6] = system: Alopecurus myosuroides (ALOMY); assay: Example A glasshouse herbicide test, pre-emergence, ALOMY; assay type: in vivo; conditions: Alopecurus myosuroides, pre-emergence, 312 h, Rate 250 g/ha, sprayed after cultivation for one day, evaluated after 13 days, read-out: Pre-Emergence Activity ALOMY (100=total damage to plant; 0=no damage to plant)
Protocol: as §1, §2, §3

Lolium perenne (LOLPE) [7] = assay: Example A glasshouse herbicide test, post-emergence, LOLPE; assay type: in vivo; conditions: Lolium perenne, post-emergence, 312 h, Rate 250 g/ha, sprayed after 8 days cultivation, evaluated after 13 days, read-out: Post-Emergence Activity LOLPE (100=total damage to plant; 0=no damage to plant)
Protocol: as §1, §2, §3

[8] = system: Alopecurus myosuroides (ALOMY); assay: Example A glasshouse herbicide test, post-emergence, ALOMY; assay type: in vivo; conditions: Alopecurus myosuroides, post-emergence, 312 h, Rate 250 g/ha, sprayed after 8 days cultivation, evaluated after 13 days, read-out: Post-Emergence Activity ALOMY (100=total damage to plant; 0=no damage to plant)
Protocol: as §1, §2, §3

[9] = system: Winter Wheat variety 'Hereward'; assay: Example B crop damage test, post-emergence, wheat seed treated with safener cloquintocet mexyl; assay type: in vivo; conditions: Rate 250 g/ha; post-emergence spray 8 days after sowing; seed treated with cloquintocet mexyl 0.5 g/kg dry seed; evaluated after 13 days
Protocol: Seeds of the Winter Wheat variety ‘Hereward’ were seed treated with a wettable powder formulation of the cereal herbicide safener, cloquintocet mexyl, at a rate of 0.5 grams per kilogram of dry seed prior to the initiation of glasshouse testing. One seed was sown per 1.5 inch plastic pot into a sandy loam soil at a depth of 1 cm, 8 days prior to application of the test compounds and was watered and grown under controlled conditions in a glasshouse (at 24/16° C., day/night; 14 hours light; 65% humidity). The plants were sprayed post-emergence with an aqueous spray solution derived from the formulation of the technical active ingredient in acetone/water (50:50) solution containing 0.5% Tween 20 (polyoxyethelyene sorbitan monolaurate, CAS RN 9005-64-5).
(§4) The test plants were then grown in a glasshouse under controlled conditions in a glasshouse (at 24/16° C., day/night; 14 hours light; 65% humidity) and watered twice daily. After 13 days for pre and post-emergence, the test was evaluated (100=total damage to plant; 0=no damage to plant).

[10] = system: Winter Wheat variety 'Hereward'; assay: Example B crop damage test, post-emergence, unsafened wheat; assay type: in vivo; conditions: Rate 250 g/ha; post-emergence spray after 8 days cultivation; no safener; evaluated after 13 days
Protocol: Seeds of the Winter Wheat variety ‘Hereward’ were sown in standard soil in pots. After 8 days cultivation under controlled conditions in a glasshouse (at 24/16° C., day/night; 14 hours light; 65% humidity), the plants were sprayed post-emergence with an aqueous spray solution derived from the formulation of the technical active ingredient in acetone/water (50:50) solution containing 0.5% Tween 20 (polyoxyethelyene sorbitan monolaurate, CAS RN 9005-64-5).
as §4

melting point [°C]	SMILES	pest or weed control at 250 g/ha [1] [%]	pest or weed control at 250 g/ha (Avena fatua (AVEFA) [2]) [%]	pest or weed control at 250 g/ha [3] [%]	pest or weed control at 250 g/ha (Lolium perenne (LOLPE) [4]) [%]	pest or weed control at 250 g/ha (Avena fatua (AVEFA) [5]) [%]	pest or weed control at 250 g/ha [6] [%]	pest or weed control at 250 g/ha (Lolium perenne (LOLPE) [7]) [%]	pest or weed control at 250 g/ha [8] [%]	Winter Wheat (Hereward) + cloquintocet mexyl damage (100=total damage to plant; 0=no damage to plant) [9]	Winter Wheat (Hereward) damage (100=total damage to plant; 0=no damage to plant) [10]
183.1 to 183.2	Cc1cc(C)c(C2C(=O)CC(Cc3ccc(F)cc3)C2=O)c(C)c1 (stereo not shown) [Compound A12]										
189 to 191.7	Cc1cc(C)c(C2C(=O)CC(Cc3ccc(CS(=O)(=O)c4ccccc4)cc3)C2=O)c(C)c1 (stereo not shown) [Compound A22]	20	0	30	20	10	0	20	0		
	Cc1cc(C)c(C2C(=O)C/C(=C\C3CC3)C2=O)c(C)c1 (stereo not shown) [Compound A27, 4-[1-Cyclopropyl-methylidene]-2-(2,4,6-trimethyl-phenyl)-cyclopentane-1,3-dione]	100	70	100	100	70	90	100	60	0	40
	Cc1cc(Br)cc(C)c1C1C(=O)CC(CC2CCCCC2)C1=O (stereo not shown) [Compound A11]	20	0	0	20	0	0	50	10	0	0
	Cc1cc(C)c(C2C(=O)CC(CC3CC(C)CCC3C(C)C)C2=O)c(C)c1 (stereo not shown) [Compound A34]	10	0	60	0	10	10	30	20	10	20
	Cc1cc(C)c(C2C(=O)CC(CC3CCC3)C2=O)c(C)c1 (stereo not shown) [Compound A25]	90	60	100	100	80	100	100	60	0	30
	Cc1cc(C)c(C2C(=O)C/C(=C\C3CCCCC3C)C2=O)c(C)c1 (stereo not shown) [Compound A26]	70	90	100	100	50	90	90	60	20	40
	Cc1cc(C)c(C2=C(OC(=O)C(C)(C)C)CC(CC3CCCCC3)C2=O)c(C)c1 (stereo not shown) [Compound B2]	60	0	100	100	80	30	90	80	0	70
	Cc1cc(C)c(C2C(=O)C/C(=C\C3CCCCC3)C2=O)c(C)c1 (stereo not shown) [Compound A1]	90	50	100	100	80	70	80	80	50	60
	Cc1cc(C)c(C2C(=O)CC(CC3CCCCCC3)C2=O)c(C)c1 (stereo not shown) [Compound A35]	80	50	100	30	20	50	80	50	0	20
	Cc1cc(C)c(C2C(=O)CC(CC3CCC(C)CC3)C2=O)c(C)c1 (stereo not shown) [Compound A33]	60	50	100	0	70	30	100	30	0	40
	Cc1cc(C)c(C2C(=O)CC(CC3CC(C)CCC3C)C2=O)c(C)c1 (stereo not shown) [Compound A6]	80	50	90	100	60	50	80	80	0	10
	Cc1cc(C)c(C2C(=O)CC(CC3CCCC(C)C3)C2=O)c(C)c1 (stereo not shown) [Compound A32]	100	50	100	90	90	70	100	70	0	30
	Cc1cc(C)c(C2C(=O)CC(CC3CCC(=NO)CC3)C2=O)c(C)c1 (stereo not shown) [Compound A8]	50	40	90	90	90	60	100	70	10	30
